Experimental data: patent publication US20100286149A1, “NOVEL BENZAMIDE DERIVATIVES USEFUL AS POTASSIUM CHANNEL MODULATORS” (priority 2007, published 2010)

Columns and labels:
[1] = biological target: T1, BK channels heterologously expressed in Xenopus laevis oocytes (Homo sapiens, UniProt Q12791); experiment: BK channel opening activity, two-electrode voltage clamp in Xenopus laevis oocytes; format: cell-based
T1 construct: expressed in transfected cells; host or cells: Xenopus laevis oocytes
Experimental: In this example the BK channel opening activity of Compound 12 (i.e. N-[5-Chloro-2-(1H-tetrazol-5-yl)-phenyl]-4-dipropylsulfamoyl-benzamide) is determined using BK channels heterologously expressed in Xenopus laevis oocytes.
The electrical current through the BK channel was measured using conventional two-electrode voltage clamp. BK currents were activated by repeating ramp protocols. In brief, the membrane potential was continuously changed from −120 mV to +120 mV within a 2 s period. The threshold for BK activation is approximately +30 mV under control conditions. Compounds were applied for 100 s during which the ramp protocol was repeated 10 times with 10 s intervals. In between the ramp protocols the membrane potential was clamped at −80 mV. The first three compound applications were control blanks where the current level is allowed to stabilize.
In order to evaluate the ability of the compounds to shift the BK activation curve towards lower membrane potentials, the BK current was transformed into conductance by using Ohm's law g=I/(Ememb−Erev), where g is the conductance, I is the current, Ememb is the membrane potential and Erev is the reversal potential. The extracellular solution for these experiments contained 2.5 mM K+ and the intracellular K+ concentration of an oocyte was estimated to be 100 mM. Under those conditions, Nernst equation predicts a reversal potential of Erev=−93.2 mV. The control conductance level at a membrane potential of +100 mV was calculated, and the compound effect was evaluated as the potential difference, ΔV, to the membrane potential at which the same conductance level was obtained in the presence of compound.
The concentration response curve for this potential difference was fitted to the sigmoidal logistic equation: ΔV=ΔVmax/(1+(EC50/[compound])^n), where ΔVmax represents the maximal left shift of the BK activation curve, EC50 is the concentration causing a half maximal response, and n is the slope coefficient.

T1 sequence (Q12791 whole entry): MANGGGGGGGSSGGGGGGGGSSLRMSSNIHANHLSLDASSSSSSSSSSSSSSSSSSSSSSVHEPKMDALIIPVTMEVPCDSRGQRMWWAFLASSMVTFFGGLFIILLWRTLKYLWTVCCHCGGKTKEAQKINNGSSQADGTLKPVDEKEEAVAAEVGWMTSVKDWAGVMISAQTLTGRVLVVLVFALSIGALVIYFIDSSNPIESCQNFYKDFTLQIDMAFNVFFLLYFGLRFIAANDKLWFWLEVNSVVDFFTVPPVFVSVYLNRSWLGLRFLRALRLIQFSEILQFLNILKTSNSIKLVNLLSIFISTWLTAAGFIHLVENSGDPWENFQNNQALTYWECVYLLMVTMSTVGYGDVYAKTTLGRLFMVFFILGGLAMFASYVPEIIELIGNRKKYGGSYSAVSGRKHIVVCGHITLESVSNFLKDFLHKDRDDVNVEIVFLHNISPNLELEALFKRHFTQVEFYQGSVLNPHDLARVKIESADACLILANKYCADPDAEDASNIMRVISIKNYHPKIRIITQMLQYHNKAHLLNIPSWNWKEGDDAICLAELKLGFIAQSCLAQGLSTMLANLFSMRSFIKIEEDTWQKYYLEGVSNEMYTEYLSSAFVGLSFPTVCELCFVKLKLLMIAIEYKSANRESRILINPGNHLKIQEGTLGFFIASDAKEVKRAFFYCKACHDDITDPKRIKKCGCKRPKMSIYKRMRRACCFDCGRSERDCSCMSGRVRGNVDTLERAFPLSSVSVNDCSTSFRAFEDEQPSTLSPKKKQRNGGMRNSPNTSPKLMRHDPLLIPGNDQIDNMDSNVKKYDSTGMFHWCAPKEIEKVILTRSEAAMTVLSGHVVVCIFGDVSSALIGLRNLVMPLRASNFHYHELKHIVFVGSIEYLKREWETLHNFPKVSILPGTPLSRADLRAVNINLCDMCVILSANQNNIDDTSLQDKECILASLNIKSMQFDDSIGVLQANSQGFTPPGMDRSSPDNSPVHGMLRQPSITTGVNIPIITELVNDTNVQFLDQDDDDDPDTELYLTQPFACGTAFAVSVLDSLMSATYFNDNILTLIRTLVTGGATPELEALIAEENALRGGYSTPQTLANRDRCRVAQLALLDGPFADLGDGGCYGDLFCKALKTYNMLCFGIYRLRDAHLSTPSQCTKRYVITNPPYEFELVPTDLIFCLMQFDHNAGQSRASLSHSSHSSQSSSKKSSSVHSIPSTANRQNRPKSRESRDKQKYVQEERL

| SMILES | melting point [°C] | ΔVmax, maximal left shift of the BK activation curve ([1]; BKCa channels expressed in Xenopus oocytes, 0.01-31.6 μM, sigmoidal logistic fit) [mV] | EC50 ([1]; BKCa channels expressed in Xenopus oocytes, ramp −120 to +120 mV, 0.01-31.6 μM, ΔV at control conductance level of +100 mV, sigmoidal logistic fit, read-out: EC50 for the left-shift of the BK activation curve (ΔV)) [nM] | BK current level at depolarizing potentials ([1]; increasing concentrations (0.01-31.6 μM) applied, 100 s each, ramp protocol) |
| --- | --- | --- | --- | --- |
| O=C(Nc1cc(Cl)ccc1-c1nnn[nH]1)c1cc(C(F)(F)F)cc(C(F)(F)F)c1 [Compound 4, N-[5-Chloro-2-(1H-tetrazol-5-yl)-phenyl]-3,5-bis-trifluoromethyl-benzamide] | 247 to 249 | – | – | – |
| O=C(Nc1cc(Cl)ccc1-c1nnn[nH]1)c1ccc2ccccc2c1O [Compound 8, 1-Hydroxy-naphthalene-2-carboxylic acid [5-chloro-2-(1H-tetrazol-5-yl)-phenyl]-amide] | 221 to 225 | – | – | – |
| CCCN(CCC)S(=O)(=O)c1ccc(C(=O)Nc2cc(Cl)ccc2-c2nnn[nH]2)cc1 [Compound 12, N-[5-Chloro-2-(1H-tetrazol-5-yl)-phenyl]-4-dipropylsulfamoyl-benzamide] | – | −110 | 1300 | marked increase in the current level at depolarizing potentials |
